Data taken from paper PMC9024597, “The Biological Fate of a Novel Anticancer Drug Candidate TNBG-5602: Metabolic Profile, Interaction with CYP450, and Pharmacokinetics in Rats” (Molecules, 2022).

Tests used:
CYP3A4 = target: T1, CYP3A4 (Homo sapiens, UniProt P08684); experiment: IC50 assessment using recombinant human CYPs (probe testosterone); format: in vitro ADME; conditions: recombinant CYP 0.025 μM, testosterone 0.05 mg mL^−1, 37 °C, 30 min, n = 3; read-out: IC50 against CYP3A4
T1 construct: purchased IPHASE
T1 sequence (P08684 whole entry): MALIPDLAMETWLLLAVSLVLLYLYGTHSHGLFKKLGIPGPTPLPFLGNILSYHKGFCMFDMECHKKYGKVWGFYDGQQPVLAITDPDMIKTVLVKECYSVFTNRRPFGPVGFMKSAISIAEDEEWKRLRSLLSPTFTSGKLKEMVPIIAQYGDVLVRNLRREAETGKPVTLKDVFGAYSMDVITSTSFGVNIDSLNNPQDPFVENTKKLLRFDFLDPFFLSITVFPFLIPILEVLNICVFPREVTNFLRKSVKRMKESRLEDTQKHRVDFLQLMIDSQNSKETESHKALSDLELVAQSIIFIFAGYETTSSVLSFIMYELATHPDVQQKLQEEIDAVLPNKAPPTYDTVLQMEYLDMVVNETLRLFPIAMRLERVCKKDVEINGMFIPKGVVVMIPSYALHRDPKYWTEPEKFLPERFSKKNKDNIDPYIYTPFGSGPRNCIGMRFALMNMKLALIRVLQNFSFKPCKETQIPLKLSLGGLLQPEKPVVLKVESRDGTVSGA
Procedure: Figure 12 The inhibition curves for TNBG-5602 against cytochrome enzymes (mean ± SD, n = 3). TNBG-5602 (final concentrations of 0, 0.01, 0.1, 1.0, 10.0, and 100 μM) was incubated with recombinant cytochrome P450s (final concentration 0.025 μM) and the specific probe substates (final concentration 0.05 mg mL^−1) with NADPH to initiate the metabolic reaction. The incubations were carried out at 37 °C for 30 min with a total volume of 200 μL. The CYP isoforms tested were 2D6 (dextromethorphan), 2C9 (tolbutamide), and 3A4 (testosterone). […] The IC50 values were calculated using the GraphPad Prism statistical software (Version 8) by nonlinear regression analysis.
The LC-MS/MS instrument was the same as the system used to determine TNBG-5602. The mobile phase consisted of 0.1% formic acid, aqueous solution (Solvent A), and acetonitrile (Solvent B) at a flow rate of 0.3 mL min^−1. […]
For IC50 assessment, the inhibition curves were established by nonlinear regression analysis plotting the relative activity (y) versus the logarithm of the TNBG-5602 concentration (x). The inhibition curve and the half-maximal inhibitory concentration of TNBG-5602 against each CYP isoform were analyzed using the GraphPad Prism statistical software (version 8). […]

liver cancer cells = tested on: liver cancer cells; design: method as in PMID 31446646; conditions: cited from earlier work
cancer cells and tissues = tested on: cancer cells and tissues; design: method as in PMID 31446646; conditions: oil red O staining; cited from earlier work
[1] = Stability of TNBG-5602 rat plasma samples on storage and freeze-thaw; format: in vitro ADME; conditions: stored at −20 and −80 °C
[2] = Pharmacokinetics in rats after a single intravenous administration
Procedure: Sample separation was carried out on a CSH C18 Column (3.0 × 75 mm, 1.7 μm). The mobile phase consisted of Eluent A (0.1% aqueous formic acid) and Eluent B (acetonitrile: methanol, 80:20, v/v) at a flow rate of 0.4 mL min^−1. […] The column temperature was set to 35 °C. The injection volume was 5 μL. The optimized spectrometric parameters were set as follows: a capillary voltage of 4 kV, gas temperature of 300 °C, gas flow rate of 5 L min^−1, nebulizer of 45 Psi, sheath gas temperature of 250 °C, and sheath gas flow rate of 10 L min^−1. The UPLC-MS/MS data were acquired and processed using the Mass Hunter MS Optimizer software (version B.07.00). Detection was performed under multiple reaction monitoring (MRM) mode with the positive-ion electrospray-ionization (ESI) mode.
For the pharmacokinetic analyses, five rats were administered at a dose of 4.8 mg kg^−1 body weight via the caudal vein.
The whole blood samples were immediately centrifuged at 13,000 rpm for 5 min upon collection, and the supernatants were stored at −80 °C until analysis.
Obtained plasma (50 μL) was thawed and spiked with 50 μL of the IS working solution (50 ng mL^−1). The mixture was deproteinized and extracted using 1 mL of acetonitrile by using a vortex for 2 min.

[3] = rats, i.v. 4.8 mg kg^−1, non-compartment model, mean, n = 5
[4] = rats, i.v. 4.8 mg kg^−1, two-compartment model, mean, n = 5

IC50 (CYP3A4): 18.7 µM
time plasma samples were stable on storage [1]: at least 90 days
k el ([2]; rat, in vivo, iv, 4.8 mg/kg): 6.67e-05 s⁻¹
half-life ([2]; rat, plasma, iv, 4.8 mg kg^−1, half-life, rats): ~12 h
Cmax ([2]; rat, plasma, iv, 4.8 mg/kg): 171 ng/mL
MRT inf ([2]; rat, plasma, iv, 4.8 mg/kg): 15.5 h
MRT last ([2]; rat, plasma, iv, 4.8 mg/kg): 7.13 h
Vd ([2]; rat, plasma, iv, 4.8 mg/kg): 20.2 L
clearance ([2]; rat, plasma, iv, 4.8 mg/kg, CL (clearance), rats, i.v. 4.8 mg kg^−1, two-compartment model, mean, n = 5): 22 mL/min
clearance ([2]; rat, plasma, iv, 4.8 mg/kg, CLt (total body clearance), rats, i.v. 4.8 mg kg^−1, non-compartment model, mean, n = 5): 19 mL/min
Tmax ([2]; rat, plasma, iv, 4.8 mg/kg, Tmax, rats, i.v. 4.8 mg kg^−1, non-compartment model, mean, n = 5): ≤ 5 min
half-life ([2]; rat, plasma, iv, 4.8 mg/kg, t1/2, rats, i.v. 4.8 mg kg^−1, non-compartment model, mean, n = 5): 11.6 h
half-life ([2]; rat, plasma, iv, 4.8 mg/kg, t1/2β (elimination half-life), rats, i.v. 4.8 mg kg^−1, two-compartment model, mean, n = 5): 11.8 h
AUC(0–t) [2, 3]: 45513 µg·min/L
AUC(0–∞) [2, 3]: 56248 µg·min/L
t1/2 [2, 3]: 11.56 h
A (zero-time intercept of the α distribution phase) [2, 4]: 127.2 µg/L
B (zero-time intercept of the elimination phase) [2, 4]: 57.6 µg/L
K12 (transfer rate constant central to peripheral compartment) [2, 4]: 0.028 min⁻¹
K21 (transfer rate constant peripheral to central compartment) [2, 4]: 0.019 min⁻¹
Vc (apparent volume of the central compartment) [2, 4]: 6.985 L
Vp (apparent volume of the peripheral compartment) [2, 4]: 13.2 L
t1/2α [2, 4]: 0.457 h
distribution volume of the peripheral compartment relative to the central compartment ([2]; rats, i.v., two-compartment model): 1.88 fold
in vivo clearance as % liver blood flow in rats ([2]; rats, i.v., liver blood flow ref 19): 200%
apparent volume of distribution relative to total body water in rats ([2]; rats, i.v., total body water ref 19): approximately 155 fold
apparent clearance rate from the central compartment to the peripheral compartment ([2]; rats, single i.v. administration): 0.028 ± 0.033 L/min
SMILES: CN(C)CCN1CC2c3ccccc3CCN2c2nc3ccccc3nc21 (centres unmarked) [TNBG-5602]
inhibition of proliferation of liver cancer cells in vitro (liver cancer cells): effectively inhibited the proliferation
lipid accumulation in cancer cells and tissues (cancer cells and tissues): selectively cause lipid accumulation
